Experimental data reported in patent US7320979B2, “N-[(piperazinyl)hetaryl]arylsulfonamide compounds” (Abbott GmbH & Co. KG., priority 2003, dated 2008).

Tests used:
[1] = target: T1, human dopamine D3 receptors (Homo sapiens, UniProt P35462); test: Dopamine D3 receptor binding, displacement of [125I]-iodosulpride; settings: membranes of HEK-293 cells stably expressing human D3 receptors; 0.1 nM [125I]-iodosulpride; 25° C., 60 minutes
T1 construct: expressed in transfected cells; host or cells: HEK-293
Procedure: (§1) The substance to be tested was either dissolved in methanol/Chremophor® (BASF-AG) or in dimethyl sulfoxide and then diluted with water to the desired concentration.
(§2) Each assay mixture was run in triplicate.
The incubation buffer contained 50 mM tris, 120 mM NaCl, 5 mM KCl, 2 mM CaCl2, 2 mM MgCl2 and 0.1% bovine serum albumin, 10 μM […] and 0.1% ascorbic acid (prepared fresh daily). The buffer was adjusted to pH 7.4 with HCl.
(§3) After having been incubated at 25° C. for 60 minutes, the assay mixtures were filtered through a Whatman GF/B glass fiber filter under vacuum using a cell collecting device. The filters were transferred to scintillation viols using a filter transfer system. After 4 ml of Ultima Gold® (Packard) have been added, the samples were shaken for one hour and the radioactivity was then counted in a Beta-Counter (Packard, Tricarb 2000 or 2200CA). The cpm values were converted into dpm using a standard quench series and the program belonging to the instrument.
(§4) The inhibition curves were analyzed by means of iterative nonlinear regression analysis using the Statistical Analysis System (SAS) which is similar to the “LIGAND” program described by Munson and Rodbard.

[2] = target: T2, human dopamine D2L receptors (long isoform) (Homo sapiens, UniProt P14416); test: Dopamine D2L receptor binding, displacement of [125I] iodospiperone; settings: footnote: ratio of the Ki values of the D3 and D2L binding tests
T2 construct: expressed in transfected cells; host or cells: HEK-293
Procedure: as §1, §2
The incubation buffer contained 50 mM tris, 120 mM NaCl, 5 mM KCl, 2 mM CaCl2, 2 mM MgCl2 and 0.1% bovine serum albumin. The buffer was adjusted to pH 7.4 with HCl.
as §3, §4

T1 sequence (P35462 whole entry): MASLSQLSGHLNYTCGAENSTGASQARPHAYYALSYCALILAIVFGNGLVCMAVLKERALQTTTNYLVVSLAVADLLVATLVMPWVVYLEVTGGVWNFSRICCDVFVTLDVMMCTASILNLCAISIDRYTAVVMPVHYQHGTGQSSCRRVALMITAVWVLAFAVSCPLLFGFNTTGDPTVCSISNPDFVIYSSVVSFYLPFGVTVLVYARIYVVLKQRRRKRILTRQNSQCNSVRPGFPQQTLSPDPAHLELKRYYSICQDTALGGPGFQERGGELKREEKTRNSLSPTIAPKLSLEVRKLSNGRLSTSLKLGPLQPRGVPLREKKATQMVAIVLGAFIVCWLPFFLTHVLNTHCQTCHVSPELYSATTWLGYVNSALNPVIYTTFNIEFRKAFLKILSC
T2 sequence (P14416 whole entry, canonical isoform): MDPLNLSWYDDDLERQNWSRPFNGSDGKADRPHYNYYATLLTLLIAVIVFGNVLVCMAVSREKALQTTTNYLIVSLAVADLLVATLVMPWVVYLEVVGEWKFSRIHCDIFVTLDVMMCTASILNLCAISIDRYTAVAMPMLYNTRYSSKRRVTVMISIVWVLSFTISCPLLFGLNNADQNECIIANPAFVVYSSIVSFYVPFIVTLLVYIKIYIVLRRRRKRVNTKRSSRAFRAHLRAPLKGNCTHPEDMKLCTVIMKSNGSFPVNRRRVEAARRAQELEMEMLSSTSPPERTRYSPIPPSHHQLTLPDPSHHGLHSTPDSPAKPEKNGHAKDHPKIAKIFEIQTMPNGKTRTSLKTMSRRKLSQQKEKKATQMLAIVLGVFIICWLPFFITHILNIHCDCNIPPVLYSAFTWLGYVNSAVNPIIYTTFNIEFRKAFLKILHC

| Compound | Ki [1] [nM] | Selectivity vs. D2L [2] |
| --- | --- | --- |
| C=CCN1CCN(c2ccc(NS(=O)(=O)c3ccc(C(C)C)cc3)cn2)CC1C.Cl (racemic) [Example 13, N-[6-(4-Allyl-3-methylpiperazin-1-yl)pyridin-3-yl]-4-isopropylbenzenesulfonamide hydrochloride] | 3.6 | 131 |
| CC(C)c1ccc(S(=O)(=O)Nc2ccc(N3CCN(C)CC3)nc2)cc1 [Example 10, 4-Isopropyl-N-[6-(4-methylpiperazin-1-yl)pyridin-3-yl]benzenesulfonamide] | 7.5 | 93 |
| C=CCN1CCN(c2ccc(NS(=O)(=O)c3ccc(C(C)C)cc3)cn2)C[C@@H]1C [Example 13a, N-{6-[4-Allyl-(3S)-methylpiperazin-1-yl]pyridin-3-yl}-4-isopropylbenzenesulfonamide] | 2.7 | 96 |
| CCCN1C(C)CN(c2ncccc2NS(=O)(=O)c2ccc(C(C)C)cc2)CC1C.O=C(O)C(F)(F)F (centres unmarked) [Example 22, 4-Isopropyl-N-[2-(3,5-dimethyl-4-propylpiperazin-1-yl)pyridin-3-yl]benzenesulfonamide trifluoroacetate] | 21.9 | 22 |
| CC(C)c1ccc(S(=O)(=O)Nc2ccc(N3CCNCC3)nc2)cc1 [Example 7, 4-Isopropyl-N-(6-piperazin-1-ylpyridin-3-yl)benzenesulfonamide] | 11.4 | 68 |
| C=CCN1CCN(c2ccc(NS(=O)(=O)c3ccc(Br)cc3)cn2)CC1.Cl [Example 19, N-[2-(4-Allylpiperazin-1-yl)pyridin-5-yl]-4-bromobenzenesulfonamide hydrochloride] | 36.9 | 91 |
| CCCN1CCN(c2ccc(NS(=O)(=O)c3ccc(C(C)C)cc3)cn2)CC1C.Cl (racemic) [Example 14, 4-Isopropyl-N-[6-(3-methyl-4-propylpiperazin-1-yl)pyridin-3-yl]benzenesulfonamide hydrochloride] | 2.5 | 81 |
| C=CCN1C(C)CN(c2ccc(NS(=O)(=O)c3ccc(C(C)C)cc3)cn2)CC1C.Cl (centres unmarked) [Example 24, N-[6-(4-Allyl-3,5-dimethylpiperazin-1-yl)pyridin-3-yl]-4-isopropylbenzenesulfonamide hydrochloride] | 25 | 47 |
| CC(C)c1ccc(S(=O)(=O)Nc2ccc(N3CCN(CCCF)CC3)nc2)cc1.Cl [Example 32, N-{6-[4-(3-Fluoropropyl)piperazin-1-yl]pyridin-3-yl}-4-isopropylbenzenesulfonamide hydrochloride] | 17 | 74 |
| CCN1CCN(c2ccc(NS(=O)(=O)c3ccc(C(C)C)cc3)cn2)CC1.Cl [Example 11, N-[6-(4-Ethylpiperazin-1-yl)pyridin-3-yl]-4-isopropylbenzenesulfonamide hydrochloride] | 6.2 | 77 |

More lines, now with the values ahead:

| Ki [1] [nM] | Selectivity vs. D2L [2] | Compound |
| --- | --- | --- |
| 17.2 | 22 | CCCN1CCN(c2cc(C)c(NS(=O)(=O)c3ccc(C(C)C)cc3)cn2)CC1.Cl [Example 38, 4-Isopropyl-N-[4-methyl-6-(4-propylpiperazin-1-yl)pyridin-3-yl]-benzenesulfonamide hydrochloride] |
| 6.1 | 118 | C=Cc1ccc(S(=O)(=O)Nc2ccc(N3CCN(CCC)[C@@H](C)C3)nc2)cc1.Cl [Example 47, N-[6-((S)-3-methyl-4-propyl-piperazin-1-yl)-pyridin-3-yl]-4-vinylbenzenesulfonamide, hydrochloride] |
| 6.2 | 254 | C=Cc1ccc(S(=O)(=O)Nc2cnc(N3CCN(CCC)[C@@H](C)C3)nc2)cc1.Cl [Example 58, N-[2-((S)-3-Methyl-4-propyl-piperazin-1-yl)-pyrimidin-5-yl]-4-vinylbenzenesulfonamide, hydrochloride] |
| 9.9 | 57 | C=CCN1CCN(c2ccc(NS(=O)(=O)c3ccc(C(C)C)cc3)cn2)C[C@@H]1CC.Cl [Example 50, N-[6-((S)-4-Allyl-3-ethyl-piperazin-1-yl)-pyridin-3-yl]-4-isopropylbenzenesulfonamide, hydrochloride] |
| 0.4 | 19 | CCCN1CCN(c2ccc(NS(=O)(=O)c3ccc(C(C)C)cc3)c(OC)n2)C[C@@H]1C.Cl [Example 49, 4-Isopropyl-N-[2-methoxy-6-((S)-3-methyl-4-propyl-piperazin-1-yl)-pyridin-3-yl]-benzenesulfonamide, hydrochloride] |
| 0.8 | 21 | C=CCN1CCN(c2ccc(NS(=O)(=O)c3ccc(C(C)C)cc3)c(OC)n2)C[C@@H]1C.Cl [Example 48, N-[6-((S)-4-Allyl-3-methyl-piperazin-1-yl)-2-methoxy-pyridin-3-yl]-4-isopropylbenzenesulfonamide, hydrochloride] |
